The source of these data is article PMC7150977, “Regional Intestinal Drug Permeability and Effects of Permeation Enhancers in Rat” (Pharmaceutics, 2020).

For data set [1], the system named is jejunum and colon. As to conditions: human study; cited from earlier work.
The test system of data set [2] is jejunum. Details: method as in PMID 31201856. The following applies: rat jejunum SPIP, cited from earlier work.
Data set [3] relates to jejunum. The experiment in a line: Rat single-pass intestinal perfusion (SPIP), jejunal lumen-to-blood Peff from plasma appearance. In kind it is in vivo. The following applies: 100 µM, mean ±SD, n = 6.
Details of data set [4]: method as in PMID 9836611. The following applies: n-octanol-water; cited from earlier work.
Data set [5] has as its system colon. The following applies: male, Han Wistar, rat, in vivo, 60 min, 100 µM.
Data set [6] is described as follows: First-pass extraction (Ffirstpass) in rat intestine and liver. In kind it is in vivo. As to conditions: based on literature data, iv plasma CL and liver blood flow 47 mL/min/kg.
For data set [7], the system named is colon. The following applies: control solutions, mean ±SD, n = 38.
Procedure: A linear regression analysis of the plasma samples was made to obtain a corresponding plasma value for each perfusate sample. The blood-to-lumen CLCr-EDTA was calculated using Equation (1) [16]. (1) CLCr−EDTA=Cperfusate × Qin/Cplasma × tissue weight ×100 where Cperfusate and Cplasma is the activity in the perfusate and plasma (cpm/mL), and Qin is the flow rate (mL/min). CLCr-EDTA was determined during the last 45 min for the control solution and during the last 60 min for the test solutions, of which the first 15 min of each period were for equilibration.
Data set [8] concerns intestine. The following applies: pH 6.5, rat SPIP model; cited from earlier work.
Data set [9] has as its system intestine. The following applies: pH 6.5, human SPIP model; cited from earlier work.
Data set [10] deals with jejunum and colon. The experiment in a line: Regional comparison (jejunum vs colon, pH 6.5 vs 7.4) of Peff in rat SPIP. The format is in vivo. As to conditions: plasma appearance.
Procedure: The ratio was compared using the paired student’s t-test with the Benjamini–Hochberg multiple t-test correction. Multiple comparisons between groups were performed using a two-way ANOVA with a post-hoc Holm–Sidak multiple comparison test. Log transformation of values was performed when the original measured data were heteroscedastic and not normally distributed; this was investigated using the Bartlett test. Differences were considered to be statistically significant for p-values < than 0.05.
On the set-up of data set [11]: method as in patent wo2012080471, 6. The following applies: dog, oral with permeation enhancer; ref patent wo2012080471, 6; cited from earlier work.
Where [12] appears, read: Jejunum pH 6.5, control solution.
[13] abbreviates: Jejunum pH 7.4, control solution.

Read-outs that look alike come from different tables or passages of the source. Bounds are passed on as bounds.

As to `CC(C(=O)O)c1cccc(C(=O)c2ccccc2)c1` (centres unmarked) [Ketoprofen, ketoprofen], the “difference between permeability from luminal disappearance and plasma appearance” value in the data set with jejunum and colon [1] is “no differences”; with jejunum [2], “no differences”.

Turning to `COCCc1ccc(OCC(O)CNC(C)C)cc1` (centres unmarked) [Metoprolol, metoprolol], the “Plasma Appearance Peff” value with jejunum [3] (setting [12]) is 0.28 ± 0.24 ×10^–4 cm/s; with jejunum [3] (setting [13]), 0.17 ± 0.095 ×10^–4 cm/s; in the data set with colon [5] (pH 6.5) it was 0.41 ± 0.19 ×10^–4 cm/s; in the data set with colon [5] (pH 7.4) it was 0.38 ± 0.15 ×10^–4 cm/s. Also, the Log P (in general, the decadic logarithm of the partition coefficient of the neutral form, usually between octanol and water) in [4] is on record as 2.07. Moreover, the “difference between permeability from luminal disappearance and plasma appearance” value is recorded as “no differences” in the data set with jejunum and colon [1]; “no differences” in the data set on jejunum [2]. In [6], the “Ffirstpass (first-pass extraction compensation value)” value is given as 0.22.

As for `O=C([O-])CN(CCN(CC(=O)[O-])CC(=O)[O-])CC(=O)[O-].[51Cr+3]` [Cr-EDTA, ^51chromium-labeled ethylenediaminetetraacetate], the “colonic CLCr-EDTA (blood-to-lumen clearance)” value in the data set with colon [7] is 0.038 ± 0.050 mL/min/100 g.

Regarding `CCCCCCCCCC(=O)[O-].[Na+]` [caprate, sodium caprate], the permeation enhancing effect result with intestine [8] and with intestine [9] was “no permeation enhancing effect” throughout.

For the compound `C[C@H](N[C@@H](CCc1ccccc1)C(=O)O)C(=O)N1CCC[C@H]1C(=O)O` [Enalaprilat, enalaprilat], the “Plasma Appearance Peff” value in the data set on jejunum [3] (setting [12]) is on record as 0.005 ± 0.004 ×10^–4 cm/s; in the data set with jejunum [3] (setting [13]), 0.004 ± 0.001 ×10^–4 cm/s. Moreover, the “permeability from luminal disappearance compared to plasma appearance (times higher)” value in the data set on jejunum [2] (same rat) is > 10 times. The “difference in jejunal and colonic basal Peff” value in the data set on jejunum and colon [10] is listed as “no differences”.

As to `CC(C)NCC(O)COc1ccc(CC(N)=O)cc1` (centres unmarked) [Atenolol, atenolol], the “difference in jejunal and colonic basal Peff” value in the data set with jejunum and colon [10] is recorded as “no differences”. Moreover, the “Ffirstpass (first-pass extraction compensation value)” value in data set [6] was found to be 1.0.

In the case of semaglutide, the bioavailability in data set [11] was 0.29 % of the oral dose.
